Assay in all cases: NCI tumour cell line growth inhibition, 48 h
Assay [1] has as its system CCRF-CEM.
Assay [2] deals with HCC 2998.
Assay [3] relates to HCT-15.
Assay [4] concerns HT-29.
In assay [5] the test system is IGROV-1.
Assay [6] has as its system K562.
Assay [7] deals with LOX IMVI.
The subject of assay [8] is MOLT-4.
Assay [9] has as its system Malme-3M.
Assay [10] deals with NCI-H226.
Assay [11] concerns OVCAR-3.
The test system of assay [12] is OVCAR-8.
For assay [13], the system named is RPMI-8226.
Assay [14] relates to SN12C.
In assay [15] the test system is SNB-19.
Assay [16] deals with SR.
The subject of assay [17] is TK-10.
Assay [18] concerns NCI/ADR-RES.
The subject of assay [19] is U-251.

Results on four compounds are retold here after ChEMBL document CHEMBL1201862, “PubChem BioAssay data set” (2004).

Each structure is given as a SMILES string.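 Compound exposure: 48 hours, 5 concentrations, 96-well plates. GI50 = concentration required for 50% inhibition of growth.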 The source made the active and inactive calls. Cut-off read from the data, not from the text of the source: active = GI50 up to about 1.1 µM and inactive = higher.

Consider `C(/C=C/N1CCCC1)=C\c1nc(N2CCCC2)c2ccccc2n1`, for which the GI50 in assay [1] is 13.2 µM (inactive); in [2] it was 17.4 µM (inactive); in assay [3], 16.4 µM; in assay [4] it was 20.7 µM (inactive); in assay [5] it was 21.6 µM (inactive); in assay [6] it was 12.5 µM (inactive). In addition, the GI50 is 17.5 µM (inactive) in [7]; 17.3 µM (inactive) in [8]; 18.3 µM (inactive) in assay [9]; 16.7 µM (inactive) in assay [10]; 15.7 µM (inactive) in [11]; 34.1 µM (inactive) in assay [12]. For the same compound, the GI50 is 17.4 µM (inactive) in assay [13]; 13.5 µM (inactive) in [14]; 18.5 µM (inactive) in assay [15]; 13.6 µM (inactive) in [16]; 41 µM (inactive) in assay [17].

Consider `CSC(=S)NN=C1CCCC1.CSC(=S)NN=C1CCCC1.[Zn+2]`, for which the GI50 in [1] is < 0.01 µM (active); in assay [3], 1.99 µM; in assay [4] it was 19.5 µM (inactive); in assay [5], 10.1 µM (inactive); in assay [6] it was 50.4 µM (inactive); in assay [7] it was 10.7 µM (inactive). Also, the GI50 is 9.66 µM (inactive) in assay [8]; 12.5 µM (inactive) in assay [9]; 43.9 µM (inactive) in [10]; > 100 µM (inactive) in assay [18]; 24.6 µM (inactive) in assay [11]; 14.4 µM (inactive) in assay [12]. For the same compound, the GI50 in assay [13] is 11.5 µM (inactive); in assay [14], 17.9 µM (inactive); in assay [15], 40.9 µM (inactive); in [17] it was 19.8 µM (inactive); in assay [19], 8.93 µM (inactive).

With `C/C(=N/O)c1sc(-c2nc(C)c(/C(C)=N\O)s2)nc1C`, the GI50 was > 100 µM (inactive) in [1]; > 100 µM (inactive) in assay [2]; more than 100 µM in assay [3]; > 100 µM (inactive) in assay [4]; > 100 µM (inactive) in assay [5]; > 100 µM (inactive) in assay [6]. Besides, the GI50 in assay [7], in [8], in [9], in assay [10], in assay [11] and in assay [12] was > 100 µM (inactive) each time. The GI50 in assay [13], in [14], in assay [15], in assay [16] and in [19] was > 100 µM (inactive) throughout.

`Nc1ncc(Cc2nc3ccccc3s2)s1`: the GI50 in assay [1] was 30.3 µM (inactive); in [2], > 100 µM (inactive); in assay [3], more than 100 µM; in [4], 29.3 µM (inactive); in assay [5], 63.8 µM (inactive); in assay [6] it was 56.4 µM (inactive). Also, the GI50 in assay [7] is > 100 µM (inactive); in [8] it was > 100 µM (inactive); in assay [9] it was 68.9 µM (inactive); in [10], 24.6 µM (inactive); in [18], 91.6 µM (inactive); in assay [11] it was 47.3 µM (inactive). The GI50 was 57.3 µM (inactive) in assay [12]; 18.5 µM (inactive) in assay [13]; > 100 µM (inactive) in assay [14]; > 100 µM (inactive) in assay [15]; 85.5 µM (inactive) in [17]; 90.4 µM (inactive) in [19].
